How the values were obtained:
Type in all cases: cell-based, mouse
BMDMs [1] = assay: Mitochondrial bioenergetics, Seahorse OCR after IL-4
Method: BMDMs collected from lipin-1^mEnzyKO, lipin-1^mKO, and littermate control mice were seeded at a density of 150,000 cells per well on XF24 cell culture microplates and allowed to incubate for 4 h. Experiments were conducted in XF assay medium containing 25 mM glucose, 2 mM 1-glutamine, and 1 mM sodium pyruvate and analyzed using a Seahorse XFe 24 extracellular flux analyzer (Agilent Technologies). Where indicated, the following were injected: ATP-synthesis inhibitor oligomycin (Oligo; 1 μM), carbonyl cyanide 4-(trifluoromethoxy)phenylhydrazone (FCCP) (2 μM) to uncouple ATP synthesis, rotenone (100 nM) to block complex I, and antimycin A (1 μM) (Sigma-Aldrich) to block complex III. Oxygen consumption rate (OCR) was analyzed using Wave Desktop software (Agilent Technologies).
IL-4 stimulation polarizes macrophages toward a proresolving macrophage and elicits increased (3-oxidation and oxidative phosphorylation. In hepatocytes and skeletal muscle cells, lipin-1 promotes β-oxidation and oxidative phosphorylation. The inventors wanted to investigate if lipin-1 promoted oxidative phosphorylation in macrophages in response to IL-4. The inventors used BMDMs from lipin-1^mEnzyKO (EKO), lipin-1^mKO (KO), and littermate controls (wild type [WT]) to determine the contribution of the enzymatic activity and infer the contribution of the transcriptional coregulatory activity toward induction of oxidative phosphorylation. BMDMs from EKO, KO, and WT mice were stimulated with 40 ng/ml IL-4 for 4 h, and cellular bioenergetics were analyzed by Seahorse extracellular flux analyzer (Agilent Technologies). There were no differences in respiration between unstimulated WT and EKO macrophages (FIGS. 1 and 3). […] The inventors next tested if lipin-1 transcriptional coregulatory activity contributes to oxidative metabolism in macrophages. WT and lipin-1 KO macrophages were stimulated with IL-4 for 4 h, and cellular bioenergetics were analyzed. There was no difference in respiration between unstimulated WT and lipin-1 KO BMDMs (FIGS. 4 and 6).

BMDMs [2] = assay: Phagocytosis assay with pHrodo green zymosan particles; settings: IL-4 stimulated (20 ng/ml, 24 h) lipin-1mKO BMDMs vs wild type BMDMs
Method: Bone marrow-derived macrophages (5×10^5 cells) were cultured on sterile coverslips in culture wells and treated with 20 ng/ml IL-4 for 24 h. Culture medium was then replaced with DMEM, containing pHrodo™ green Zymosan A BioParticles® (Thermo Fisher Scientific, P35365) such that each well receives 0.1 mg zymosan particles. BMDMs were allowed to phagocytose for 1 h under dark incubation and then the assay was stopped by cold PBS wash. Cells seeded on coverslips were then fixed using 4% formaldehyde. Cells on cover slips were washed three times and then stained with DAPI slowfade (Invitrogen, S36938). Immunofluorescent images were taken using Olympus BX51 and evaluated using Image J (1.50a) analysis software. Phagocytic efficiency for each image was calculated by dividing the total number of fluorescent beads by the total number of nuclei in the fluorescent image, thus giving average number of beads per cell. Experiment was performed 3 times with 4 random images per group (n=12).
Macrophages with a wound healing phenotype can have increased phagocytic capabilities. The inventors investigated the ability of BMDMs to phagocytize zymosan beads. The inventors mock treated or IL-4 treated BMDMs from lipin-1^mKO or litter mate controls for 24 h. […] The inventors then imaged using fluorescent microscopy and quantified average number of particles per cell.

BMDMs [3] = assay: IL-4 mediated wound-healing gene expression, qRT-PCR; settings: 20 ng/ml IL-4 for 4 h
Method: Bone marrow-derived macrophages were treated with IL-4 (R&D Biosystems, 404-ML-050) for 4 h and mRNA was extracted from the cultured cells using RNeasy Mini Kit (Qiagen—74106) as per manufacturer's instructions. cDNA template was generated using qScript cDNA SuperMix (Quantabio, 95048). qRT-PCR was performed in a Biorad iCycler with SsoAdvanced Universal SYBER Green SuperMix (Biorad, 172-5271). Primers (FIG. 42) were obtained from the Harvard primer bank database. Primer specificity was confirmed using primer BLAST and by verifying the presence of a single peak in melt curve analysis. Results were expressed as fold change relative to IL-4 treated WT cells by 2^−ΔΔCt method after normalizing with GAPDH.
Pro-inflammatory response in macrophages is influenced by lipin-1, but if lipin-1 contributes to wound healing responses by macrophages is unknown. The inventors have previously generated lipin-1^mEnzyKO mice that express a truncated lipin-1 protein lacking lipin-1 enzymatic activity but retain transcriptional co-regulatory function in myeloid cells. […] BMDMs from lipin-1^mEnzyKO, lipin-1^mKO, and appropriate littermate controls were stimulated with 20 ng/ml of IL-4 for 4 h. mRNA was isolated and analyzed for the expression of several canonical wound-healing associated genes: Arg1, Socs2, Ccl17, Mannr, Il10, and Pparg. […]

IL-4: cytokine IL-4 (R&D Biosystems, 404-ML-050) used to stimulate macrophages; optional component of the claimed composition
OCR in response to IL-4 stimulation (BMDMs [1]; EKO (lipin-1mEnzyKO) BMDMs, 40 ng/ml IL-4 for 4 h): equivalent increase in OCR
OCR in response to IL-4 stimulation (BMDMs [1]; WT BMDMs, 40 ng/ml IL-4 for 4 h): increased OCR
OCR in response to IL-4 stimulation (BMDMs [1]; lipin-1 KO BMDMs, IL-4 for 4 h): failed to increase OCR
zymosan particles per cell (BMDMs [2]): fewer particles per cell
expression of IL-4 elicited genes (BMDMs [3]; lipin-1mEnzyKO BMDMs vs WT BMDMs): equivalent expression
IL-4 elicited gene expression (Arg1, Socs2, Ccl17, Mannr, Il10, Pparg) (BMDMs [3]; lipin-1mKO BMDMs vs wild type or lipin-1mEnzyKO): significantly lower

Source: US20220233743A1, “WOUND CLOSURE ENHANCEMENT METHODS AND MATERIALS VIA MANIPULATION OR AUGMENTATION OF LIPIN-1” (Board of Supervisors of Louisiana State University and …, priority 2019, published 2022)
